Key:
[1] = tested on: mice; settings: mice, oral exposure; cited from earlier work
[2] = tested on: Caco-2 cell monolayers; experiment: Lucifer Yellow paracellular permeability (barrier integrity); type: cell-based, human; settings: 24 h
Protocol: (§1) All experiments were performed with human intestinal Caco-2 cells (ATCC-HTB37), acquired from the American Type Culture Collection (ATCC; Manassas, VA, USA). Caco-2 cells originate from a colorectal adenocarcinoma, but upon reaching confluence, they differentiate and express the characteristics of enterocytes. The cells were cultivated in minimum essential medium containing 5.5 mM D-glucose, Earle’s salts, and 2 mM L-alanyl-glutamine (MEM GlutaMAX™, Gibco, Bromont, QC, Canada) supplemented with 10% fetal bovine serum (FBS, Gibco), 1% non-essential amino acids, 50 U/mL penicillin, and 50 μg/mL streptomycin (Gibco) under humidified conditions (37 °C, 5% CO2, 95% humidity). The cells were grown for 3–4 days up to 80% confluence before trypsinization and sub-culture. For the experiments, the cells were seeded in TRANSWELL® plates (12 wells, 0.4 µm pore size; Costar®, Corning Incorporated, Corning, NY, USA) at a density of 90,000 cells/cm^2. Prior to toxin treatment, highly differentiated Caco-2 cells were obtained after 24–26 days of culture, with medium renewal every 2–3 days. Passage numbers between 30 and 40 were used for experiments.
(§2) PnTX-A, PnTX-G, PnTX-E, PnTX-H, and portimine stock solutions were prepared in methanol, while PnTX-F was provided in acetonitrile/acetic acid (50%/0.1%). For each toxin, the cells were incubated at 8, 16, and 32 ng/mL (diluted in HBSS) for 2 h, 6 h, and 24 h, with a final volume of 1.5% solvent. The controls were incubated with the cell culture medium containing the respective solvent of the toxin at 1.5%. Each experiment included three biological replicates. Two to three independent experiments were conducted.
For the assay, both compartments of the insert system were washed with Hank’s balanced salt solution (HBSS). Then, 0.5 mL of 0.1 mg/mL Lucifer Yellow in HBSS buffer and 1 mL of pure HBSS buffer were added to the apical and basolateral compartments, respectively. After a 2 h incubation at 37 °C, the media of the basolateral compartments were collected and the fluorescence of each compartment was measured in triplicate (excitation: 405 nm, emission: 520 nm) with a FLUOstar Optima microplate reader (BMG Labtech, Ortenberg, Germany). After subtraction of the blank (HBSS), the permeability of the […] was calculated against the value obtained for pure LY and reported as % permeability.

[3] = tested on: Caco-2 cells; experiment: Trans-epithelial electrical resistance (TEER) of differentiated Caco-2 monolayers; type: cell-based, human
Protocol: as §1, §2
Epithelial integrity was examined by measuring the TEER between the apical and basolateral compartments. After rinsing with a HBSS solution (HBSS, HEPES 5 mM, pH 7.4), the Caco-2 monolayers were equilibrated for 30 min at 37 °C with 300 and 1000 µL HBSS in the apical (A) and basolateral (B) chambers, respectively. Then, the content of the apical compartment was replaced with 500 µL HBSS-containing toxins. TEER was quantified with a Millipore Millicell Electrical Resistance System (ERS Millipore, EMD Millipore Corporation, Burlington, MA, USA). The mean value of two measurements per well before and after the treatment was calculated and multiplied by the surface of the insert to obtain Ω × cm^2. After blank subtraction, the results were presented as a percentage of the solvent control.

[4] = Toxin crossing and apparent permeability across Caco-2 cell monolayers (A to B), LC-MS/MS; type: in vitro ADME, human; settings: human, Caco-2; for Papp at 2 h, 8 ng/mL / Papp at 6 h, 8 ng/mL: loaded 8 ng/mL; for Papp at 2 h, 8 ng/mL / Papp at 2 h, 16 ng/mL / Papp at 2 h, 32 ng/mL / Papp at 6 h, 8 ng/mL / Papp at 6 h, 16 ng/mL / Papp at 6 h, 32 ng/mL: A to B; for Papp at 2 h, 16 ng/mL / Papp at 6 h, 16 ng/mL: loaded 16 ng/mL; for Papp at 2 h, 32 ng/mL / Papp at 6 h, 32 ng/mL: loaded 32 ng/mL
Protocol: as §1, §2
(§3) The apical and basolateral compartments were collected after 2, 6, and 24 h treatment time. Parts of the solutions that were used to load the apical compartments were also stored (T0) to take into account the real concentration and not the estimated concentration. All the samples were stored at −20 °C until LC/MS analysis.
(§4) The LC-MS/MS analysis of toxins was implemented for the quantitative analysis of toxins. The LC system was an Agilent 1200 (Agilent Technologies, Santa Clara, CA, USA). The chromatographic separation was performed using a column Hypersil GOLD® C18 50 mm × 2.1 mm, 1.9 μm (Thermo Scientific, Waltham, MA, USA). Eluent A consisted of water, and eluent B of acetonitrile/water at a ratio of 95:5 (v/v), with both eluents containing 50 mM formic acid and 2 mM ammonium formate. The LC flow rate was 0.4 mL/min, and the gradient was programmed as follows: 10% B held for 0.5 min, 10–90% B in 5 min, 90% B held for 1 min, 90–10% B in 0.5 min, and 10% B held for 3.0 min, for a total run time of 10 min. The injection volume was 5 μL, while the column temperature was maintained at 40 °C. The column effluent was transferred via a divert valve (Valco Instruments Co., Inc., Houston, TX, USA), either to the mass spectrometer (between 1.7 and 5.5 min) or to waste.
(§5) The detection system was constructed with an API 4000 triple quadrupole mass spectrometer (Sciex, Framingham, MA, USA) equipped with an ElectroSpray Ionization (ESI) source (Turbo V). The mass spectrometer was operated in positive ESI mode. The source temperature was set at 600 °C, and the spray voltage was 5500 V. Air was used as a nebulizer gas and an auxiliary gas, with a gas pressure of 40 and 60 psi, respectively. Meanwhile, the curtain gas and collision gas were nitrogen, with a gas pressure of 15 and 8 psi, respectively. The mass spectrometer was operated in multiple reaction monitoring mode (MRM). One transition was used for quantification (Q) and another as a qualifier transition (q). A mass resolution of 0.7 Da full width at half maximum (FWHD) was set on the first (Q1) and the third (Q3) quadrupoles. Instrument control and data were handled with Analyst software version 1.5.1 (Sciex, Framingham, MA, USA).
(§6) The portimine and PnTX retention times varied between 2.7 and 4.4 min (Figure S1). […]

[5] = tested on: Caco-2 cell monolayers; experiment: as above; type: in vitro ADME, human; settings: for % theoretical amount of toxin crossing the Caco-2 cell monolayers: relative to theoretical loaded concentration; for Percentage of toxin crossing the Caco-2 cell monolayers: A to B, relative to quantified T0; for permeability / oral bioavailability class from Caco-2 Papp: threshold Papp > 1.5 × 10^−6 cm·s^−1 = highly penetrative
Protocol: as §1, §2, §3, §4, §5, §6

[6] = all concentrations (8, 16, 32 ng/mL)

SMILES	effect on LY permeability [2, 6]	Papp at 2 h, 8 ng/mL [4] [×10⁻⁶ cm/s]	Papp at 2 h, 16 ng/mL [4] [×10⁻⁶ cm/s]	Papp at 2 h, 32 ng/mL [4] [×10⁻⁶ cm/s]	Papp at 6 h, 8 ng/mL [4] [×10⁻⁶ cm/s]	Papp at 6 h, 16 ng/mL [4] [×10⁻⁶ cm/s]	Papp at 6 h, 32 ng/mL [4] [×10⁻⁶ cm/s]	% theoretical amount of toxin crossing the Caco-2 cell monolayers ([5]; 2 h, 8 ng/mL) [%]	% theoretical amount of toxin crossing the Caco-2 cell monolayers ([5]; 2 h, 16 ng/mL) [%]	% theoretical amount of toxin crossing the Caco-2 cell monolayers ([5]; 2 h, 32 ng/mL) [%]	Percentage of toxin crossing the Caco-2 cell monolayers ([5]; 2 h, loaded 8 ng/mL) [%]	Percentage of toxin crossing the Caco-2 cell monolayers ([5]; 2 h, loaded 16 ng/mL) [%]	Percentage of toxin crossing the Caco-2 cell monolayers ([5]; 2 h, loaded 32 ng/mL) [%]	% theoretical amount of toxin crossing the Caco-2 cell monolayers ([5]; 6 h, 8 ng/mL) [%]	% theoretical amount of toxin crossing the Caco-2 cell monolayers ([5]; 6 h, 16 ng/mL) [%]	% theoretical amount of toxin crossing the Caco-2 cell monolayers ([5]; 6 h, 32 ng/mL) [%]	Percentage of toxin crossing the Caco-2 cell monolayers ([5]; 6 h, loaded 8 ng/mL) [%]	Percentage of toxin crossing the Caco-2 cell monolayers ([5]; 6 h, loaded 16 ng/mL) [%]	Percentage of toxin crossing the Caco-2 cell monolayers ([5]; 6 h, loaded 32 ng/mL) [%]	permeability / oral bioavailability class from Caco-2 Papp [5]	also measured
C=C1CCCC2=NCC(C)C(C)CC23CCC(C2CCC(=O)O2)=CC3C2OC3(CC(C)CC2O3)CC2OC3(CCC4(OC(CCC4(C)O)C1)O3)CC(C)C2O (stereo not drawn) [PnTX-F]	significant increase	8.95 ± 1.69	6.28 ± 2.37	6.94 ± 2.03	16.1 ± 0.24	11.4 ± 2.88	13.7 ± 1.09	4.75 ± 0.35	4.00 ± 0.00	5.03 ± 0.31	14.43 ± 2.73	10.12 ± 3.82	11.20 ± 3.27	8.75 ± 2.12	7.44 ± 0.97	10.31 ± 2.83	26.00 ± 0.52	18.36 ± 4.64	22.09 ± 1.76	high oral bioavailability	macroscopic lesions on the intestine, other organs and tissues [1]: no macroscopic lesions; TEER ([3]; 24 h, 32 ng/mL): 67 ± 5.6 % of the control value; effect on TEER ([3]; 24 h, 8 and 16 ng/mL): slight non-significant decrease; percentage of toxin crossing (text summary over 8-32 ng/mL) ([5]; 2 h): around 12%
C=CC1=CC2C3OC4(CC(C)CC3O4)CC3OC4(CCC5(OC(CCC5(C)O)CC(=C)CCCC5=NCC(C)C(C)CC52CC1)O4)CC(C)C3O (stereo not drawn) [PnTX-H, Pinnatoxin H]	–	19.5 ± 3.14	13.7 ± 4.83	18 ± 2.19	36 ± 5.4	30.3 ± 6.69	33.6 ± 2.43	3.96 ± 0.19	3.21±0.94	4.32 ± 1.10	31.52 ± 5.07	22.05 ± 7.80	29.07 ± 3.54	7.37 ± 1.42	7.10 ± 0.79	8.04 ± 1.80	58.06 ± 8.71	48.83 ± 11.22	54.22 ± 3.91	high oral bioavailability	effect on passage of LY [2]: lower effect; effect on LY permeability ([2]; 32 ng/mL only): significant increase; effect on TEER ([3]; 24 h, 32 ng/mL): slight, but non-significant, decrease
C=C1CCCC2=NCC(C)C(C)CC23CCC(C(=O)O)=CC3C2OC3(CC4CCCC5(CCC6(OC(CCC6(C)O)C1)O5)O4)CC(C)C(O)C2O3 (stereo not drawn) [PnTX-A]	significant increase	1.45 ± 1.03	1.4 ± 0.21	1.25 ± 0.39	2.13 ± 0.38	1.92 ± 0.95	1.48 ± 0.41	2.83 ± 2.1	2.5 ± 0.33	2.60 ± 0.80	2.35 ± 1.66	2.26 ± 0.34	2.01 ± 0.63	4.08 ± 0.52	3.42 ± 1.63	3.12 ± 1.05	3.44 ± 0.62	3.10 ± 1.53	2.39 ± 0.65	poor permeability	effect on TEER ([3]; irrespective of time (2, 6, 24 h) and concentration (8, 16, 32 ng/mL)): no effect; Papp ([4]; 2 and 6 h, 8-32 ng/mL, read-out: Papp, range of means): 1.25 to 2.13 ×10⁻⁶ cm/s; amount of toxin crossing the intestinal barrier in vitro ([5]; regardless of the concentration loaded, 2 and 6 h): < 4%

Source: article PMC11766601, “A Comparative Study of the In Vitro Intestinal Permeability of Pinnatoxins and Portimine” (Marine Drugs, 2025)
